In patent US7291353B2, “Anti-peptic ulcer activity of an extract of a flower of Woodfordia fruticosa” (Council of Scientific and Industrial Research, priority 2002, dated 2007):

Key:
[1] = tested on: frog gastric mucosa (histamine stimulated acid secretion); test: Frog Chamber Study: histamine-stimulated acid secretion of chambered frog gastric mucosa; design: species or system Rana hexadactyla; key to Comment (qualitative rank score): the rank score for both cimetidine and omeprazole (considered as 100%) were given as +8; details: for concentration enough to block almost complete acid secretion: 0.1-0.2 mM histamine; for Comment (qualitative rank score): cimetidine and omeprazole (100%) = +8
Experimental: Frog Chamber Study: The in organ experiments using the whole frog stomach to assess the anti-HCl secreting potential of extracts and their fractions were carried out employing Frog Chamber Model (for detail about the logic of the experiment and the information to be generated.
Frog Chamber Study: The study is based on the principle of ‘No Acid No Ulcer’. […] In this in vitro study, frog stomach is mounted in a plastic tube (Using Chamber Study). Employing histamine as the ulcerogen (final common mediator of all the physiological secretagogues), the rate and extent of proton secretion are quantitatively assessed as a function of the amount of herbal preparation and duration of treatment.
The experimental approach, as standardized through a series of experiments with more than 200 plant extracts, has been to measure, over time, (i) basal acid secretion, (ii) histamine-stimulated acid secretion, (iii) extract-induced (two doses) acid secretion, followed by (iv) extract-withdrawn acid secretion. For a particular stomach, after the basal secretion level is known, histamine is inserted from the nutrient side to see maximum acid secreting potential. Thereafter, an extract is inserted (first lower dose and then higher dose) from the nutrient side in presence of continuous supply of histamine to mimic ulcerative situation, followed by withdrawal of the extract by washing the nutrient side with histamine-containing nutrient medium. This latter phase is expected to generate information regarding the efficacy of the extract, upon its withdrawal, towards inhibiting the continuously existing acid secreting phase.
Experiments are carried out with in vitro preparations of gastric mucosa mounted over one end of a plastic tube (mounted area is 1.76 cm^2) with the mucosal surface facing out. The mounted tissue is placed vertically inside a 25-ml container. The nutrient solution is regular Frog Ringer solution and the luminal side (secretory side) is bathed in an unbuffered NaCl solution. The volumes of nutrient and mucosal solutions are adjusted in a way so as to be able to maintain constant hydrostatic pressure in the chamber throughout the duration of the experiment. Both solutions are slowly and continuously bubbled with O2 during the entire duration of the experiment. The mucosal solution is slowly and continuously stirred with a magnetic stirrer and collected at 15-min intervals in thoroughly washed clean vials.

[2] = tested on: Helicobacter pylori avirulent strain 80A; test: Anti H. pylori Activity, Disc Diffusion Sensitivity Test, strain 80A; type: cell-based; details: 0.5 mg/disc; one range stated for both the strains (80A)
[3] = tested on: Helicobacter pylori virulent strain 121 A; test: Anti H. pylori Activity, Disc Diffusion Sensitivity Test, strain 121A; type: cell-based; details: 0.5 mg/disc; one range stated for both the strains (121A)
[4] = target: T1, Gastric H^+, K^+-ATPase (Sus scrofa, UniProt P19156); test: Anti Gastric Proton Pump Activity Study; type: biochemical, pig; details: dose range of 0.3-3.0 mg/assay
T1 construct: These membranes are primarily enriched in tubulovescicular and apical membranes; from tissue; host or cells: pig stomach (gastric mucosa), tubulovesicular and apical membranes
T1 sequence (P19156 2-1034 limits assumed): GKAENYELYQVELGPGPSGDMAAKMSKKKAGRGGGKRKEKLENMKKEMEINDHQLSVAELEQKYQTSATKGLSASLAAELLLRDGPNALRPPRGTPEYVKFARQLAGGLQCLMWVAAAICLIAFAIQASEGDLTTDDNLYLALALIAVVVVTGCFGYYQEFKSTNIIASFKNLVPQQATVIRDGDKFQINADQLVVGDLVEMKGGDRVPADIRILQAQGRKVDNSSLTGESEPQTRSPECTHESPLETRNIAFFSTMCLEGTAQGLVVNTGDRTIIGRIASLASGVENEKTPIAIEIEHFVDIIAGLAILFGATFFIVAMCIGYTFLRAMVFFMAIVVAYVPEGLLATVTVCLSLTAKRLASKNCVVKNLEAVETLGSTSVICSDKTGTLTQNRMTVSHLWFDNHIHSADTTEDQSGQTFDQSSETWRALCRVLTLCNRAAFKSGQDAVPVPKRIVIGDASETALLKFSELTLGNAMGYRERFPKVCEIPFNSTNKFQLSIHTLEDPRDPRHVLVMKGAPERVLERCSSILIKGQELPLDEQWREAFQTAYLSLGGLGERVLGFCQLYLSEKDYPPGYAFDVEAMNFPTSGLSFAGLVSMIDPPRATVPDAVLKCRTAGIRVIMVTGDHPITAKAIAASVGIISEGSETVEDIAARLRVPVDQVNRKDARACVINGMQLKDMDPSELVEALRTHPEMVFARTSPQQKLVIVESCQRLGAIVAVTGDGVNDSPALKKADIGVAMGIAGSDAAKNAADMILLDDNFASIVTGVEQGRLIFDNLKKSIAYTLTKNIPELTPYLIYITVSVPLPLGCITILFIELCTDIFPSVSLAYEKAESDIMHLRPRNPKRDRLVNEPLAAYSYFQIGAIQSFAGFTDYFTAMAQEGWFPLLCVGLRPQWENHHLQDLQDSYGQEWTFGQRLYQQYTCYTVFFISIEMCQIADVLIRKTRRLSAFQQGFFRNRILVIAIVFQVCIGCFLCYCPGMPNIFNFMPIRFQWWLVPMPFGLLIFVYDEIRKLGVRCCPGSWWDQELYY
T1 sequence (P18434 whole entry partner): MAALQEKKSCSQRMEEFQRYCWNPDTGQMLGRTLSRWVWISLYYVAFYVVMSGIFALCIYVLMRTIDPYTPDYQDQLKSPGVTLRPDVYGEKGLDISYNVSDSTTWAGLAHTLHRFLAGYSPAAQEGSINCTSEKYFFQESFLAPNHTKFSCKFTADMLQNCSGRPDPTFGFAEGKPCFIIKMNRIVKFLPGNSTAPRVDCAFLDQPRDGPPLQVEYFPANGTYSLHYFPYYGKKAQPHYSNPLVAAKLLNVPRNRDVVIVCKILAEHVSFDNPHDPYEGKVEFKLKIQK
Excerpt: The applicant have selected one whole animal model—Cold Restraint Stress Ulcer in Rat (in vivo) to assess ulcer protection capacity of the extracts [Senay E. C. and Levine R. J., Proc Soc. Exp. Biol. Med. 124, 1221 (1967)], one isolated stomach model—Chambered Frog Gastric Mucosa (in organ) to assess anti HCl secretion potential [Durbin R. P. and Kircher A. B., Biochem. Biophys. Acta, 321, 553 (1973); Ray, T. K. and Tague L. R., Biochem. Pharmacol. 29, 2755 (1980); Ray et al., Proc. Natl. Acad. Sci. (USA) 79, 1448 (1982)], gastric proton pump inhibition model using pig gastric H^+, K^+-ATPase-rich apical and tubulovesicular membranes (in vitro) to examine enzyme inhibition [Bandopadhyay, S. Das, P. K., Wright, M. V., Nandi, J., Bhattacharyya, D. and Ray, T. K., J. Biol. Chem. 262, 5664 (1987)], and anti Helicobacter pylori activity assessment by Disc Diffusion Sensitivity Assay [Glupczynski, Y. In: Helicobacter pylori: techniques for clinical diagnosis & basic research, (Eds. Adrian Lee & Francis Megraud), W. B. Saunders Company Ltd., 1996, pp. 17-32].
3. […] K^+-stimulated activity, referred to as H^+, K^+-ATPase, was calculated as the difference between the activities obtained in presence of Mg^2+ plus K^+ and the basal activity (Mg^2+-ATPase) in presence of MG^2+ alone.

In the case of `CN/C(=N/CCSCc1nc[nH]c1C)NC#N` [cimetidine], the “concentration enough to block almost complete acid secretion” value ([1]; added from nutrient side) is reported as 0.1 to 0.2 mM and the “Comment (qualitative rank score)” value [1] is reported as “+8”.
For `CC[C@H]1OC(=O)[C@H](C)[C@@H](O[C@H]2C[C@@](C)(OC)[C@@H](O)[C@H](C)O2)[C@H](C)[C@@H](O[C@@H]2O[C@H](C)C[C@H](N(C)C)[C@H]2O)[C@](C)(OC)C[C@@H](C)C(=O)[C@H](C)[C@@H](O)[C@]1(C)O` [clarithromycin], the inhibition zone diameter [2] was 2.3-2.7 cm and the inhibition zone diameter [3] was 2.3-2.7 cm.
With `COc1ccc2[nH]c([S+]([O-])Cc3ncc(C)c(OC)c3C)nc2c1` (stereo not shown) [omeprazole] the “concentration enough to block almost complete acid secretion” value ([1]; added from secretory side) was 1 to 10 mM, the “Comment (qualitative rank score)” value [1] was “+8” and the “% inhibition of H^+, K^+-ATPase” value [4] was 50-100%.
